Patent publication US12611443B2, “Methods and compositions related to therapeutic peptides for cancer therapy” (THE UNIVERSITY OF CHICAGO, priority 2018, dated 2026)

Assays:
MDA-MB-231 cells = experiment: Resistance to ELANE, repeated exposure in vitro; type: cell-based, human; conditions: 7 exposures, ˜90% death/exposure
From the text: To explore whether cancer cells could acquire resistance to ELANE, a combination of in vitro and in vivo approaches were used.

[1] = Assessment of potential side-effects in tumor-free C57BL/6 mice; type: in vivo
Description: Assessment of potential side-effects. ELANE or PMSF-ELANE (11.6 μg/100 μL) were injected into the 4th mammary fat pad of the right ventral side pad of tumor-free C57BL/6 mice once/day for 5 days. One day after the last injection, mice were studied for potential side-effects. Body weight and spleen weight were measured. Apoptosis at the injection site was studied by isolating, fixing, and staining mammary adipose tissue for TUNEL, cCASP3, and cPARP using identical methods described for tumors above. Mammary adipose tissue immune cell populations at the injection site were determined by flow cytometry using identical methods described for tumors above. Liver function was assessed by measuring plasma ALT activity with the Alanine Transaminase Colorimetric Activity Assays Kit (Cayman Chemical).

[2] = system: tumors (MDA-MB-231, A549, MEL888, M1, 4195, E0771, LLC1, B16F10); experiment: Intra-tumoral treatment of tumor models (xenograft, PDX, syngeneic); type: in vivo, mice
Description: Tumor inoculation and treatment. MDA-MB-231 cells (2×10^6), A549 cells (2×10^6) with Matrix Type 3), or MEL888 cells (2×10^6 with Matrix Type 3) were injected into athymic nude mice (Charles River); M1 or 4195 cells (50,000) were injected into NOD.SCID mice (JAX); and E0771 cells (0.5×10^6), LLC1 cells (0.5×10^6), or B16F10 cells (1×10^6), were injected into C57BL/6 mice (JAX). For TNBC models (MDA-MB-231, E0771, M1, 4195), cells were injected into the 4th mammary fat pad of the right ventral side. For all other models (A549, LLC1, MEL888, B16F10), cells were injected into the flank. Once tumors reached ˜100 mm^3, ELANE or PMSF-ELANE (11.6 μg/100 μL), or neutrophil medias or HSA (50 μg/100 μL) were delivered IT once/day for 5 days. Tumor volume was assessed by calipers, and experiments were terminated when tumor volume in control mice reached >1000 mm^3.
Tumor immunohistochemistry. Tumors were fixed in 4% paraformaldehyde in PBS for 24 h, embedded in paraffin blocks, and sectioned (5 μm). Slides were stained with cCASP3 (9661) and cPARP (9625) antibodies from Cell Signaling Technology. Signals were developed using the VECTASTAIN ABC kit (Vector Laboratories) or fluorescently-labeled secondary antibodies (melanoma models). For the TUNEL assay, staining was performed with the DeadEnd™ colorimetric or fluorometric TUNEL systems (Promega). Cell nuclei were labeled with haematoxylin or Hoechst 33342 (ThermoFisher Scientific). Images were obtained with a Nikon Eclipse Ti2 microscope and analyzed using NIS-Elements software.

[3] = system: survival, stress, and apoptosis pathways in cancer cells; experiment: Killing program in cancer cells (western blot, mitochondrial ROS); type: cell-based; conditions: all 6 cancer cell lines tested
Description: Western Blot Analysis. Cells were lysed with 1% SDS containing protease and phosphatase inhibitors (Sigma), and protein was quantified with the BCA Protein Assay Kit (Pierce). Proteins (10-20 μg) were resolved on 10%, 12.5%, 15%, or 20% SDS-PAGE gels depending on the target protein, transferred to PVDF membranes (Millipore), blocked with 5% BSA (Sigma) in 0.1% TBS/Tween-20 at RT for 2 hrs, stained with primary and secondary antibodies, and visualized using the ECL detection kit (Biorad) and a LI-COR imager. Antibodies—Antibodies against pERK (4370), ERK (4695), pNFκB (3033), NFκB (8242), pJNK (4668), JNK (9252), CASP3 (9662), PARP (9542), H2AX (2595), TUBB (2125) were from Cell Signaling Technology. Antibodies against γH2AX (05-636-I, Millipore), ELANE (68672, Abcam), N-terminal CD95 (3070R, BioVision), and C-terminal CD95 (60196, Proteintech).
Mitochondrial ROS measurements. Cells were treated with various doses of ELANE for 30 min, washed, labeled with the CM-H2DCFDA dye (ThermoFisher Scientific, 10 μM) for 30 min at 37° C., and fluorescence was quantified by flow cytometry.

[4] = system: E0771 and B16F10 1° and 2° tumors; experiment: Abscopal effect studies; type: in vivo, C57BL/6 mice
Description: Abscopal effect studies. For the E0771 model, 0.5×10^6 cells were injected into the 4th mammary fat pad of the right ventral side (1° tumor) and 0.4×10^6 cells were injected into the 4th mammary fat pad of the left ventral side (2° tumor) of C57BL/6 mice. Once the 1° tumor reached ˜100 mm^3, ELANE or PMSF-ELANE (11.6 μg/100 μL) were injected IT into the 1° tumor once/day for 5 days, and 1° and 2° tumor volumes were measured by calipers. For the B16F10 model, 0.5×10^6 cells were injected into the flank (1° tumor). 7 days later, 0.2×10^6 cells were injected into the lateral tail vein to create 2° lung metastases. Once the 1° tumor reached ˜100 mm^3, ELANE or PMSF-ELANE (11.6 μg/100 μL) were injected IT into the 1° tumor once/day for 5 days, and the 1° tumor volume was measured by calipers. Lungs were excised 10 days after the final ELANE treatment, and 2° lung metastases were counted. For CD8^+ T cell depletion, anti-mouse CD8α (clone 2.43, Bio X Cells) or rat IgG2b (isotype control, Bio X Cells) were injected IV (200 μg/injection) 3 days before the first ELANE treatment, and once/week after the last ELANE treatment. CD8^+ T cell depletion was confirmed by flow cytometry.
For the ‘spillover control’, 0.5×10^6 E0771 cells were injected into the 4th mammary fat pad of the left ventral side (2° tumor). ELANE or PMSF-ELANE (11.6 μg/100 μL) were injected into the tumor-free 4th mammary fat pad of the right ventral side pad once/day for 5 days, and 2° tumor volume was measured by calipers.
For the ‘specificity control’, 0.5×10^6 E0771 cells were injected into the into the 4th mammary fat pad of the right ventral side (1° tumor) and 7 days later, 1×10^6B16F10 cells were injected into the flank (2° tumor). Once the 1° tumor reached ˜100 mm^3, ELANE or PMSF-ELANE (11.6 μg/100 μL) were injected IT into the 1° tumor once/day for 5 days, and 1° and 2° tumor volumes were measured by calipers.

In the case of “ELANE: neutrophil elastase, a serine protease released by human PMNs”, the “acquired resistance after repeated exposure in vitro” value (MDA-MB-231 cells) is reported as “did not confer resistance”, the side effects ([1]; ELANE 12 μg/day into mammary fat pads) is reported as “did not produce evident side effects” and the “apoptosis at injection site” value ([1]; ELANE injected into tumor-free C57BL/6 mice) is reported as “no evidence of apoptosis was found”. For the same substance, the “therapeutic benefit, dose finding” value ([2]; E0771 TNBC model, IT, 12 μg/day) was “good therapeutic benefit that was reproducible”, the tumor growth ([2]; ELANE 12 μg/day IT, TNBC, lung cancer, melanoma models) was “attenuated tumor growth in all models tested” and the “staining for TUNEL, cPARP, and cCASP3 in tumors” value ([2]; ELANE IT) was “increase in staining for TUNEL, cPARP, and cCASP3 in all ELANE-treated tumors”. For the same substance, the “tumors with a crater” value ([2]; all immunocompetent models tested) was roughly 40%, the “craters in tumor-free mice and immunocompromised cancer models” value ([2]; mouse, in vivo) was “Craters were not observed” and the “DNA damage (γH2AX)” value [3] was “induced DNA damage”. The “mitochondrial ROS (MT ROS)” value [3] was “increased MT ROS”, the “pro-apoptotic pathways (cCASP3 and cPARP)” value [3] was “activated pro-apoptotic pathways” and the “survival pathways (phosphorylation of ERK, NFκB, or JNK)” value [3] was “suppressed at least one survival pathway”. The “number of 2° lung metastases” value ([4]; 1° B16F10 tumor treated, 12 μg/day for 5 days) was “lowered the number of lung metastases”, the “tumorigenesis in 2° B16F10 tumor (specificity control)” value ([4]; 1° E0771 tumor treated) was “did not impact tumorigenesis in a 2° B16F10 tumor” and the “tumorigenesis at 1° and 2° E0771 tumors” value ([4]; 1° tumor treated, 12 μg/day for 5 days) was “attenuated tumorigenesis at both sites”. The “abscopal effect after depleting CD8+ T cells” value ([4]; both models) was “attenuated ELANE's abscopal effect in both models” and the “tumorigenesis after injection into contralateral site” value ([4]; opposite the tumor, tumor-bearing mice) was “failed to attenuate tumorigenesis”.
